US9532997B2, “Compositions and methods for promoting intestinal stem cell function” (Whitehead Institute for Biomedical Research, priority 2012, dated 2017)
“Also recorded” adds a separate entry of the source. Each block holds one molecule with its values, some of them ahead of it.

Legend:
AL and CR-derived crypts = assay: Crypt culture organoid formation with agent added to culture media; format: cell-based, mice; details: for organoid forming capacity of AL and CR-derived crypts: 100 nM, FIG. 4h
Method: Small intestines were removed and the fat/mesentery was dissected away. The intestinal lumen was washed with ice cold PBS (Mg—/Ca—) using a 18 G feeding needle (Roboz FN-7905) until the intestines appeared white/pink. They were then opened longitudinally. The mucous was removed by gently rubbing the intestine between fingers in cold PBS. The intestines were cut into 3 to 5 mm fragments and placed into 50 ml conical tubes that were fill with ice cold 30 ml of PBS (Mg—/Ca—)/EDTA (10 mM). The samples were incubated and shook intermittently on ice for 30 minutes continuously discarding and replacing (at least 3 times) the supernatant. The fragments were then continually resuspended with ice cold 30 ml PBS (Mg—/Ca—)/EDTA (10 mM) and intermittently shook on ice for 10 minutes, discarding the supernatant again for 3 times. The fragments were resuspended again with ice cold 30 ml PBS (Mg—/Ca—)/EDTA (10 mM) and incubated and intermittently shook while waiting on ice for 20 to 40 minutes. The samples were then triturated with a 10 ml pipette 1 to 2 times, and the contents were filtered twice through a 70-μm mesh (BD Falcon) into a 50 ml conical tube to remove villous material and tissue fragments. At this point the suspension was mainly composed of crypts. Crypts were removed from this step for crypt culture experiments and embedded in matrigel with crypt culture media. For ISC isolation, the crypt suspensions were centrifuged for 5 minutes at 250 g (4 C or room temperature). The pellets were gently resuspended in 1.0 ml of undiluted TrypLE Express (Invitrogen)+120 μl of DNase I (10 U/μl, Roche) and transferred to 15 ml conical tubes. The samples were incubated in a 32° C. water bath for 1.25 to 2 minutes, were not titurated, and were then placed on ice. 12 ml of cold SMEM was added to each sample and were gently triturated twice. […]
Isolated crypts were counted and embedded in matrigel (BD Bioscience 356231 growth factor reduced) that contains 1 μM Jagged (Ana-Spec) at 5-10 crypts/μl and cultured in a modified form of medium as described in^3. […]

Bst-1 = target: T1, Bst-1 (Mus musculus, UniProt Q64277); assay: Bst-1 siRNA knock-down in CR-derived crypts, organoid formation; format: cell-based, mice; details: cADPR added to siRNA-treated crypts
T1 construct: endogenous in cells; host or cells: primary small-intestinal crypts from calorie-restricted mice, cultured in matrigel
T1 sequence (Q64277 25-286): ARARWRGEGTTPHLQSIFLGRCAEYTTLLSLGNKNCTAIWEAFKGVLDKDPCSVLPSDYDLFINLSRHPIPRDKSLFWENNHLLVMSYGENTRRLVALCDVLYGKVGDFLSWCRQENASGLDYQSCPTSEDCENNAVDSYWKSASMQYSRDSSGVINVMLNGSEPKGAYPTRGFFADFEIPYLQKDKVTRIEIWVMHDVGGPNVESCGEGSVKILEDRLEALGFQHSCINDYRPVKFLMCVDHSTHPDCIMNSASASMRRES
Method: Isolated ISCs or Paneth cells were centrifuged for 5 minutes at 250 g and then resuspended in the appropriate volume of crypt culture medium (500-1000 cells/μl) supplemented with 1×N2 (Invitrogen), 1×B27 (Invitrogen), 100 ng/ml Wnt-3A (R&D), and with additional 500 ng/ml R-Spondin to yield 1 μg/ml final concentration. ISCs were then seeded into matrigel (BD Bioscience 356231 growth factor reduced) containing 1 μM Jagged (Ana-Spec) up to 5,000-10,000 cells/30-50 μl. 30 μl drops of 65% matrigel were plated onto a flat bottom 48-well plate (Corning 3548) and then Paneth cells were added at the same cell count to the top of the matrigel drop. Alternatively, ISCs and Paneth cells were mixed after sorting in a 1:1 ratio, centrifuged, and then seeded into matrigel. The matrigel drops with ISCs and Paneth cells were allowed to solidify for 20 to 30 minutes in a 37° C. incubator. […] Organoid bodies were quantitated on days 3, 7, and 9 days of culture, unless otherwise specified. In subcloning experiments, either individual or cultures of organoids were manually disrupted as indicated in the text on day 7-9 by rigorous tituration and replated into fresh matrigel; these secondary organoid bodies were quantitated on day 18 after initiation of the primary cultures. […]

mTORC1 = target: T2, mTORC1 (Mus musculus, UniProt P26883+Q9JLN9); assay: Phospho-S6 (P-S6) immunostain as mTORC1 reporter in intestine / sorted Paneth cells; format: in vivo, mice
T2 construct: from tissue; host or cells: mouse small intestine sections, isolated crypts and sorted Paneth cells
From the text: Mice were housed in the Unit for Laboratory Animal Medicine at the Whitehead Institute for Biomedical Research. Lgr5-EGFP-IRES-CreERT2 mice (Strain name: B6.129P2-Lgr5tm1(cre/ERT2)Cle/J, Stock Number: 008875) were purchased from Jackson Laboratories. UbiquitinC-CreERT2 mice were obtained from the Jackson Laboratory (Strain Name: B6; 129S-Tg(UBC-cre/ERT2)1Ejb/J, Stock Number: 007001). Rictor floxed mice were generated as described in^27 and backcrossed to C57BL/6 for at least 6 generations. TSC1^loxp/loxp mice were the generous gift of D. Kwiatkowski (Harvard Medical School) and backcrossed to C57BL/6 for at least 6 generations. Rosa26-CreERT2 mice (Rosa26 or R26) were obtained from the Jackson Laboratory (Strain 15 Name: B6.129-Gt(ROSA)26Sor^iml(cre/ERT2)Tyj/J, Stock Number 008463). CR was achieved by providing individual or paired mice a daily portion of a chow diet fortified with vitamins and minerals amounting to 60% of the daily food intake of their ad libitum counterparts^20. All adult mice used in CR experiments were between the ages of 10 to 24 weeks and were sacrificed prior to their daily feeding. Rictor or TSC1 was excised by treatment with tamoxifen suspended in corn or sunflower seed oil (Spectrum) at a concentration of 10 mg/mL, and 200 μl per 25 g of body weight was injected intraperitoneally into mice once daily for 5-7 days. […] Mice were allowed to recover for at least 7 days after the last tamoxifen injection prior to any experiments. In vivo fate mapping in Lgr5-EGFP-IRES-reERT2; Rosa26loxpstoploxp-LacZ compound mice was done with a single injection of tamoxifen given at 200 μl per 25 g. As described previously^28, Rapamycin (LC Laboratories) was administered by intraperitoneal injection for 7 to 28 consecutive doses at 4 mg/kg. It was reconstituted in absolute ethanol at 10 mg/ml and diluted in 5% Tween-80 (Sigma) and 5% PEG-400 (Hampton Research) before injection. The final volume of all injections was 200 μl. Regular insulin (Lilly) was administered at 0.75 U/kg diluted in PBS 20 minutes prior to sacrificing fasted mice. […]

Molecule: OCCN(CCO)c1nc(N2CCCCC2)c2nc(N(CCO)CCO)nc(N3CCCCC3)c2n1 [Dipyridamole]
organoid forming capacity of AL and CR-derived crypts (AL and CR-derived crypts): reduced the organoid forming capacity of AL and CR-derived crypts to a similar level
organoid forming capacity of AL and CR-derived crypts (AL and CR-derived crypts; listed as dipyridamole): reduced the clonogenicity of CR and AL-derived crypts to same level

Molecule: N=c1c2ncn3c2ncn1[C@@H]1O[C@H](COP(=O)(O)OP(=O)(O)OC[C@H]2O[C@@H]3[C@H](O)[C@@H]2O)[C@@H](O)[C@H]1O [cADPR, cyclic ADP ribose]
rescue of function of Bst-1 knock-down CR crypts (Bst-1): sufficient to rescue the function of these crypts
organoid forming potential (clonogenicity and size) of AL crypts (AL and CR-derived crypts; 50 μM added to culture media, FIG. 4e): significantly improved the clonogenicity and size of AL-derived organoid bodies; also recorded: increased the organoid forming potential of AL crypts to an extent similar to those of CR crypts

P-S6 in sorted Paneth cells from fasted mice (mTORC1; 20 minutes after injection, FIG. 2b): induced
mTORC1 activity (P-S6) in Paneth cells (mTORC1; fasted mice, insulin 0.75 U/kg, FIG. 2a): activates mTORC1 in Paneth cells
Molecule: insulin: Regular insulin (Lilly) administered at 0.75 U/kg to fasted mice
